Measured values: patent US20230250096A1, “SUBSTITUTED PHENYL-1H-PYRROLO[2,3-c] PYRIDINE DERIVATIVES” (Janssen Pharmaceutica NV, priority 2021, published 2023)

Key:
MEIS1 mRNA expression = MEIS1 mRNA expression assay (Quantigene Singleplex) in MOLM14 cells; format: cell-based, human; settings: Homo sapiens, MOLM-14, 48 h, 48 hours incubation
How it was run: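 MOLM14 cells, 3,750/well, exposed to increasing compound concentrations for 48 h. MEIS1 mRNA measured by QuantiGene Singleplex branched-DNA hybridization (lysis 45 min, hybridization 18–22 h, both 55 °C), normalized to RPL28. IC50 fitted to background-corrected fold change versus DMSO.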

[1] = biological target: T1, menin/MLL (terbium chelate-labeled menin, FITC-MBM1 peptide) (Homo sapiens, UniProt O00255, T541A); test: Menin/MLL homogenous time-resolved fluorescence (HTRF) assay; format: binding; settings: 30 min incubation
T1 construct: Menin (a.a 1-610-6xhis tag, 2.3 mg/mL in 20 mM Hepes)
T1 sequence (O00255 with tags, fused parts or gaps T541A): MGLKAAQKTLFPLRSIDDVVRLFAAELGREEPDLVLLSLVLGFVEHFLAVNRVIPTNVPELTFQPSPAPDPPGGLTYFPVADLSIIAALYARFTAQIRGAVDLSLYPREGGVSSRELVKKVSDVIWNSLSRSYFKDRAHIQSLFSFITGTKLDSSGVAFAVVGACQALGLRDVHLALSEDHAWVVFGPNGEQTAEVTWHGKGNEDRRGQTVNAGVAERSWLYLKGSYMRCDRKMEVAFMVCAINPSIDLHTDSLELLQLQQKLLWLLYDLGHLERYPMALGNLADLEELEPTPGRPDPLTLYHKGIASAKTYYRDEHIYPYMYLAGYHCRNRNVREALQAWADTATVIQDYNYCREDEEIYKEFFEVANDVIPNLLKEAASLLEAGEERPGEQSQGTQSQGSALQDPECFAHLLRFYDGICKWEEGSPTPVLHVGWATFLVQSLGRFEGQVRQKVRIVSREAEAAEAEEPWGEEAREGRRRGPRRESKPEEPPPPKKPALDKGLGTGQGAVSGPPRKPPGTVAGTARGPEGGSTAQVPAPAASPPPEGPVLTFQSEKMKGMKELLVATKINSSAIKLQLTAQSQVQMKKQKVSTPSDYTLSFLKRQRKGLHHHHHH
How it was run: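 Terbium-labeled menin (a.a. 1-610, His-tagged; […]) pre-incubated 30 min with compound, then 75 nM FITC-MBM1 peptide added for 15 min at ambient temperature in Tris pH 7.5 buffer, 0.5% DMSO. HTRF 520/490 nm ratio read; IC50 from 11-point four-fold titrations, typically from 10 μM.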

IC50 (MEIS1 mRNA expression) [nM] | IC50 [1] [nM] | Compound
> 1000 | 0.477 | CC(=O)N1CCCCC1C1(CN2CC(Cc3cn(-c4ccc(F)cc4C(=O)N(C)C(C)C)c4cncc(C)c34)C2)CC1 (centres unmarked) [Compound 297]
178 | 0.083 | CC(=O)N1CCC(C2(CN3CC(Cc4cn(-c5ccc(F)cc5C(=O)N(C)C(C)C)c5cncc(C)c45)C3)CC2)CC1 [Compound 298]
55 | 0.116 | CC(=O)N1CC2CC(CN3CC(Cc4cn(-c5ccc(F)cc5C(=O)N(C)C(C)C)c5cncc(C)c45)C3)CC(C2)C1 (centres unmarked) [Compound 300]
144 | 0.191 | CC(=O)N1[C@H](C)CC(N2CC(Cc3cn(-c4ccc(F)cc4C(=O)N(C)C(C)C)c4cncc(C)c34)C2)C[C@@H]1C (some centres unmarked) [Compound 301]
78 | 0.05 | CC(=O)N1[C@@H](C)CC(N2CC(Cc3cn(-c4ccc(F)cc4C(=O)N(C)C(C)C)c4cncc(C)c34)C2)C[C@@H]1C (some centres unmarked) [Compound 302]
~77 | 0.179 | CC(=O)N1CCC2(CCCC(N3CC(Cc4cn(-c5ccc(F)cc5C(=O)N(C)C(C)C)c5cncc(C)c45)C3)C2)C1 (centres unmarked) [Compound 303]
> 1000 | 2.8 | CC(=O)N1CC2CC1C2C(C)N1CC(Cc2cn(-c3ccc(F)cc3C(=O)N(C)C(C)C)c3cncc(C)c23)C1 (centres unmarked) [Compound 304]
~297 | 0.146 | CC(=O)N1CC2C(CN3CC(Cc4cn(-c5ccc(F)cc5C(=O)N(C)C(C)C)c5cncc(C)c45)C3)C2C1 (centres unmarked) [Compound 305]
159 | 0.468 | CC(=O)N1CC2CCC(N3CC(Cc4cn(-c5ccc(F)cc5C(=O)N(C)C(C)C)c5cncc(C)c45)C3)C2C1 (centres unmarked) [Compound 306]
48 | 0.044 | Cc1cncc2c1c(CC1CN(CC3(O)CCOCC3)C1)cn2-c1ccc(F)cc1C(=O)N(C)C(C)C [Compound 307]
> 1000 | 60.2 | Cc1noc(CN2CC(Cc3cn(-c4ccc(F)cc4C(=O)N(C)C(C)C)c4cncc(C)c34)C2)n1 [Compound 308]
351 | 0.119 | CC(=O)N1CCC(CN2CC[C@@H](Cc3cn(-c4ccc(F)cc4C(=O)N4CCC45CCC5)c4cncc(C)c34)C2)CC1 [Compound 310]
65 | 0.291 | CC(=O)N1CCC(CN2CC[C@@H](Cc3cn(-c4ccc(F)cc4C(=O)N4CCCCC4C)c4cncc(C)c34)C2)CC1 (some centres unmarked) [Compound 317]
1380 | 0.22 | COC1CC(C)N(C(=O)c2cc(F)ccc2-n2cc(C[C@@H]3CCN(CC4CCN(C(C)=O)CC4)C3)c3c(C)cncc32)C1 (some centres unmarked) [Compound 318]
~616 | 0.819 | CC(=O)N1CCC(CN2CC[C@@H](Cc3cn(-c4ccc(F)cc4C(=O)N4C[C@@H](O)C[C@H]4C)c4cncc(C)c34)C2)CC1 [Compound 327]
13 | 0.152 | Cc1cncc2c1c(C[C@@H]1CCN(CC3CCN(C(=O)C(C)C)CC3)C1)cn2-c1ccc(F)cc1C(=O)N(CCO)C(C)C [Compound 329]
10 | 0.13 | Cc1cncc2c1c(C[C@@H]1CCN(CC3CCN(C(=O)C(C)C)CC3)C1)cn2-c1ccc(F)cc1C(=O)N(C[C@H](C)O)C(C)C [Compound 330]
29 | 0.117 | Cc1cncc2c1c(C[C@@H]1CCN(CC3CCN(C(=O)C(C)C)CC3)C1)cn2-c1ccc(F)cc1C(=O)N(C[C@@H](C)O)C(C)C [Compound 331]
196 | 0.13 | Cc1cncc2c1c(CC1CCN(CC3CCN(C(=O)C(C)C)CC3)C1)cn2-c1ccc(F)cc1C(=O)N1CC(O)CC1C (centres unmarked) [Compound 332]

IC50 (MEIS1 mRNA expression) [nM] | IC50 [1] [nM] | Compound
~394 | 0.251 | Cc1cncc2c1c(C[C@@H]1CCN(CC3CCN(C(=O)C(C)C)CC3)C1)cn2-c1ccc(F)cc1C(=O)N1CC(O)CC1C (some centres unmarked) [Compound 333]
12 | 0.224 | COC(=O)N1CCC(CN2CC[C@@H](Cc3cn(-c4ccc(F)cc4C(=O)N(CCO)C(C)C)c4cncc(C)c34)C2)CC1 [Compound 334]
18 | 0.193 | COC(=O)N1CCC(CN2CC[C@@H](Cc3cn(-c4ccc(F)cc4C(=O)N(C[C@H](C)O)C(C)C)c4cncc(C)c34)C2)CC1 [Compound 335]
33 | 0.128 | COC(=O)N1CCC(CN2CC[C@@H](Cc3cn(-c4ccc(F)cc4C(=O)N(C[C@@H](C)O)C(C)C)c4cncc(C)c34)C2)CC1 [Compound 336]
24 | 0.092 | CC(=O)N1CCC(C)(CN2CC[C@@H](Cc3cn(-c4ccc(F)cc4C(=O)N(CCO)C(C)C)c4cncc(C)c34)C2)CC1 [Compound 337]
37 | 0.185 | CC(=O)N1CCC(C)(CN2CC[C@@H](Cc3cn(-c4ccc(F)cc4C(=O)N(C[C@H](C)O)C(C)C)c4cncc(C)c34)C2)CC1 [Compound 338]
68 | 0.193 | CC(=O)N1CCC(C)(CN2CC[C@@H](Cc3cn(-c4ccc(F)cc4C(=O)N(C[C@@H](C)O)C(C)C)c4cncc(C)c34)C2)CC1 [Compound 339]
> 1000 | 0.034 | Cc1cncc2c1c(C[C@@H]1CCN(CC3CCN(C(=O)C(C)(C)O)CC3)C1)cn2-c1ccc(F)cc1C(=O)N1CCCC12CC2 [Compound 340]
20 | 0.037 | Cc1cncc2c1c(C[C@@H]1CCN(CC3CCN(C(=O)C(C)(C)O)CC3)C1)cn2-c1ccc(F)cc1C(=O)N1CCC2CC21 (some centres unmarked) [Compound 341]
107 | 0.188 | CCC1CCCN1C(=O)c1cc(F)ccc1-n1cc(C[C@@H]2CCN(CC3CCN(C(=O)C(C)(C)O)CC3)C2)c2c(C)cncc21 (some centres unmarked) [Compound 342]
13 | 0.045 | Cc1cncc2c1c(C[C@@H]1CCN(CC3CCN(C(=O)C(C)(C)O)CC3)C1)cn2-c1ccc(F)cc1C(=O)N1[C@H](C)CC[C@H]1C [Compound 343]
14 | ~0.058 | Cc1cncc2c1c(C[C@@H]1CCN(CC3CCN(C(=O)C(C)(C)O)CC3)C1)cn2-c1ccc(F)cc1C(=O)N1[C@H](C)CC[C@@H]1C [Compound 344]
36 | 0.204 | Cc1cncc2c1c(C[C@@H]1CCN(CC3CCN(C(=O)C(C)(C)O)CC3)C1)cn2-c1ccc(F)cc1C(=O)N1CC2CC1CO2 (some centres unmarked) [Compound 345]
> 1000 | 6.68 | CC(=O)N1CC2CC(CN3CC[C@@H](Cc4cn(-c5ccc(F)cc5C(=O)N5CCC[C@H]5CO)c5cncc(C)c45)C3)CC(C2)C1 (some centres unmarked) [Compound 349]
~1000 | 0.583 | CC(=O)N1CC2CC(CN3CC[C@@H](Cc4cn(-c5ccc(F)cc5C(=O)N(CC(C)O)C(C)C)c5cncc(C)c45)C3)CC(C2)C1 (some centres unmarked) [Compound 350]
18 | 0.04 | CC(=O)N1CCC(CN2CC[C@@H](Cc3cn(-c4ccc(F)cc4C(=O)N4[C@H](C)CC[C@H]4C)c4cncc(C)c34)C2)CC1 [Compound 354]
107 | 0.127 | Cc1cncc2c1c(C[C@@H]1CCN(CC3CCOCC3)C1)cn2-c1ccc(F)cc1C(=O)N1CCC[C@H]1CO [Compound 360]
> 1000 | 23.9 | Cc1cncc2c1c(C[C@@H]1CN[C@H](C)C1)cn2-c1ccc(F)cc1C(=O)N(C)C(C)C [Compound 504]
